Test results as given in patent US9745276B2, “Crystal modifications of elobixibat” (Elobix AB, priority 2013, dated 2017).

Key:
Type in all cases: physicochemical
[1] = Thermal gravimetric analysis (TGA) of water/solvent content; details: heated at 10° C./min from 25° C., dry nitrogen purge
Description: Approximately 1-5 mg of sample was added to a tared Platinum cup which was then placed in the weighting position of a Perkin-Elmer Pyris 1 TGA analyzer. The furnace was raised and the starting weight of the sample was recorded. The heating program was then started. The sample was heated at a rate of 10° C./min, starting at 25° C. and ending at 90-300° C., depending on where a constant temperature could be attained. The sample was purged with dry nitrogen gas during analysis.
A sample of crystal modification IV was analyzed with XRPD and the water content was checked with TGA. The weight loss for crystal modification IV was initially slow, but accelerated at about 50° C. and was finalized at about 80° C. A weight loss of 2.7% w/w was observed.
A sample of crystal modification I was analyzed with XRPD and the water content was checked with TGA. […] A weight loss of 0.99% w/w was observed.
The solvent content of a sample of EtOH-1 was analyzed with TGA.

[2] = Storage stability of the crystal modification (XRPD)
Description: Dry samples were lightly ground in an agate mortar, if needed, and were then smeared out on a sample holder. Slurry samples were added to the sample holder as wet and were analyzed both wet and dry. XRPD data were collected on a cut Silicon Zero Background Holder (ZBH) or on a Porous Alumina Filter Sample Holder, using a PANalytical X'Pert Pro diffractometer, equipped with an X'celerator or a PIXcel detector. The sample was spun during analysis and Cu-radiation was used. The following experimental settings were used:
A batch of crystal modification IV was stored in a closed glass vial and kept at 20° C. and between 20 and 60% RH for 17 months.

[3] = Relative thermodynamic stability of crystal modifications; details: normal conditions (21° C., 10-30% relative humidity)
[4] = Dynamic Vapor Sorption (DVS) analysis; details: after drying with dry nitrogen, two sorption-desorption cycles, 0 to 10% RH
Description: Approximately 15-20 mg of the sample was weighed into a quartz receptacle, which was then released of static electricity by exposing it to a radioactive source. The quartz receptacle was then positioned in a Surface Measurements System Ltd DVS Advantage instrument. The sample was dried with dry nitrogen gas until a dm/dt below 0.002% per minute was reached. The instrument was running in dm/dt-mode using a dm/dt window of 5 minutes, a minimum stage time of 10 minutes and a maximum stage time of 360 minutes. The sample was then subjected to two consecutive sorption-desorption cycles, using d/m/dt-mode parameters above, and each cycle running from 0-95-0% relative humidity (% RH). One cycle consisted of 20 steps, those between 0-90% RH were taken in 10% RH each.
A sample of crystal modification IV was weighed into the quartz scale pan of a Scientific Instruments Dynamic Vapor Sorption instrument. The sample was released of static electricity by moving a radioactive isotope over it and was then put into the instrument. The sample was dried by flushing dry nitrogen gas until the weight was constant and then two consecutive sorption-desorption cycles were run. Crystal modification IV absorbs approximately 2.45% water between 0 and 10% RH, and an additional 0.36 to 0.37% water between 10 and 60% RH. […]

SMILES	TGA weight loss [1]	crystalline form by XRPD after storage ([2]; closed glass vial, 20° C., between 20 and 60% RH, 17 months)	time of storage for which found stable ([2]; such as under ambient, open conditions)	thermodynamic stability compared with crystal modification I and other crystal modifications of elobixibat [3]	water absorbed between 0 and 10% RH [4]
CCCCC1(CCCC)CN(c2ccccc2)c2cc(SC)c(OCC(=O)N[C@@H](C(=O)NCC(=O)O)c3ccccc3)cc2S(=O)(=O)C1 [EtOH-1, N-{(2R)-2-[({[3,3-dibutyl-7-(methyl-thio)-1,1-dioxido-5-phenyl-2,3,4,5-tetrahydro-1,5-benzothiazepin-8-yl]oxy}acetyl)amino]-2-phenylethanolyl}glycine]	approximately 6 % w/w	–	–	–	–
CCCCC1(CCCC)CN(c2ccccc2)c2cc(SC)c(OCC(=O)N[C@@H](C(=O)NCC(=O)O)c3ccccc3)cc2S(=O)(=O)C1 [crystal modification IV, N-{(2R)-2-[({[3,3-dibutyl-7-(methyl-thio)-1,1-dioxido-5-phenyl-2,3,4,5-tetrahydro-1,5-benzothiazepin-8-yl]oxy}acetyl)amino]-2-phenylethanolyl}glycine]	2.7 % w/w	unchanged	≥ 17 months	more thermodynamically stable	approximately 2.45%
CCCCC1(CCCC)CN(c2ccccc2)c2cc(SC)c(OCC(=O)N[C@@H](C(=O)NCC(=O)O)c3ccccc3)cc2S(=O)(=O)C1 [crystal modification I, N-{(2R)-2-[({[3,3-dibutyl-7-(methyl-thio)-1,1-dioxido-5-phenyl-2,3,4,5-tetrahydro-1,5-benzothiazepin-8-yl]oxy}acetyl)amino]-2-phenylethanolyl}glycine]	0.99 % w/w	–	–	–	approximately 0.66%
